Data taken from patent publication US11066399B2, “Ferroportin inhibitors” (Vifor (International) AG, priority 2015, dated 2021).
pIC50: −log10 of the molar value. Marks after values point to notes of the source that are not given here.

How the values were obtained:
b2m−/− mice = assay: Correction of hyperferremia in beta2-microglobulin deficient mice; type: in vivo, mouse; conditions: for effect on elevated serum iron: b2m−/− mice, 50 mg/kg p.o. for 3 h
Experimental: Female and male homozygous b2m−/− mice were supplied from Jackson Laboratories (B6.129P2-B2mtm1Unc/J, Stock Number: 002087) at age of 6 to 7 weeks and fed standard diet (Harlan Provimi Kliba 3436) ad libitum. Age and gender matched WT C57BL/6 mice are supplied by Charles River. To study the acute effects of ferroportin (Fpn) inhibitors in iron overload b2m−/− mice were treated with compounds or the corresponding amount of vehicle at a volume of 10 ml/kg body weight. Fpn inhibitor compounds were formulated in 0.5% methylcellulose/water or 20% cremophor EL/water and dosed p.o. in mice at 50 mg/kg body weight. WT controls received only vehicle. Three hours later, mice were pre-terminally anesthetized in isoflurane chambers and blood was collected by retro-orbital bleeding. Mice were sacrificed by cervical dislocation and spleens, livers and duodena were harvested and used for biomarker analysis. All experiments have been performed in compliance with license approved by the responsible veterinarian authorities. Serum was isolated by centrifugation of blood into gel-containing microtainers (BD Biosciences) and serum iron was determined by the MULTIGENT Iron assay (Abbott Diagnostics, Cat. 6K95). Four to nine mice per group were used and one-way ANOVA with Bonferroni's multiple comparison test was applied to analyze the statistical differences between the experimental groups.
Blood was collected 1 (#) or 3 (##) hours after oral administration of the indicated doses of Fpn inhibitors to beta2-microglobulin deficient mice and serum iron concentrations were measured. Relative reduction (%) of serum iron levels are shown, which were calculated by subtracting the average of serum iron values of animals dosed with the Fpn inhibitor from that of vehicle-treated animals. The difference in average serum iron values between vehicle and compound treated groups was then divided by the average of serum iron of the vehicle control group and listed as percentage.

ferroportin (Fpn) = target: T1, ferroportin (Fpn) (Mus musculus, UniProt Q9JHI9); assay: Hepcidin Internalization Assay (J774); type: cell-based; conditions: average (AVE) of multiple measurements; TMR-hepcidin 25 nM, J774 cells
T1 construct: host or cells: J774 mouse macrophage cell line, Fe(III)-NTA induced
T1 sequence (Q9JHI9 1-570): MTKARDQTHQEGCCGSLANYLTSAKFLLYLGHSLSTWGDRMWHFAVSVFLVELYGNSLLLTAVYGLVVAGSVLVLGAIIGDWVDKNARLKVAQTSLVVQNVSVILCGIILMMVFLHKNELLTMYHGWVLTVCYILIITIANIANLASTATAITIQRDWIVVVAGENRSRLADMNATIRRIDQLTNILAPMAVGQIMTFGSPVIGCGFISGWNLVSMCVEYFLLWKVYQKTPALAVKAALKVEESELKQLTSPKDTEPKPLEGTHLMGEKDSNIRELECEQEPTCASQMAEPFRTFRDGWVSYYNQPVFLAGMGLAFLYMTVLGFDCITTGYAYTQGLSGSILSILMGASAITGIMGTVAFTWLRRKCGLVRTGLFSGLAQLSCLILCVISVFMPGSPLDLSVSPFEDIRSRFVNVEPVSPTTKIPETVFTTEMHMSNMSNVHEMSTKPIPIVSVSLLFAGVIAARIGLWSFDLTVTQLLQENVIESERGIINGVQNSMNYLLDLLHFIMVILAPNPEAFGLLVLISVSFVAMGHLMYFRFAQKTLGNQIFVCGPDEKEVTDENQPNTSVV
Text: This cellular assay allows quantification of the binding of hepcidin to ferroportin (Fpn) through microscopic detection of internalization of a fluorescently labeled hepcidin into J774 cells. […] Binding of hepcidin to Fpn triggers internalization and degradation of both hepcidin and Fpn. However, the TMR (6-carboxytetramethylrhodamine) fluorophore attached to hepcidin remains associated with the cell after degradation of the hepcidin peptide backbone. Therefore, microscopic detection of cell-associated TMR fluorescence is a measure of hepcidin binding to Fpn and internalization of hepcidin and Fpn. If TMR-hepcidin is prevented from binding to Fpn, cellular TMR fluorescence remains low (Dürrenberger et al, 2013). The effect of small molecular weight Fpn inhibitor compounds in this assay was evaluated in vitro as described below.
After overnight incubation, cells were washed 3 times with pre-warmed DMEM w/o phenol red, 30 μl/well of DMEM w/o phenol red was added after the final wash and 10 μl/well of dilution series of test compounds were added in triplicates. […] Cells were incubated in a total volume of 50 μl at 37° C. with 5% CO2 for 2 hours, then Hoechst 33342 dye was added to a final concentration of 0.5 μg/ml to stain nuclei and further incubated for 10 min. at 37° C. with 5% CO2. Cells were washed 3 times with PBS and fixed in 100 μl of 4% paraformaldehyde in PBS for 15 min. at room temperature. After removal of the paraformaldehyde solution, cells were washed 3 times with PBS leaving 100 μl per well and the plates were sealed with foil plate seal. TMR (530-550 nm excitation/575-625 nm emission/400 ms exposure time) and Hoechst 33342 (360-370 nm excitation/420-460 nm emission/10 ms exposure time) fluorescence images were acquired using a ScanR plate imager (Olympus) with a 20× high NA objective. Four pictures were acquired per well and fluorescence channel covering ca. 1500 cells per well. The acquired image data was analysed with the ScanR image analysis software. Image analysis included detection of nuclei (Hoechst 33342 fluorescence), identification of cell-associated regions, application of a virtual channel and thresholding for rolling-ball-type background reduction, followed by application of the Sum(Mean) algorithm to measure the TMR fluorescence associated with cells as a quantitative measure for internalized TMR-hepcidin. IC50 values were calculated with the Sum(Mean) raw data using “log(inhibitor) vs. response” curve fitting of Prism 5 software (GraphPad Software Inc., version 5.02).

Hbb th3/+ mice = assay: Improvement of anemia, ineffective erythropoiesis and iron overload in a mouse model of β-thalassemia intermedia; type: in vivo; conditions: % change to vehicle; for Decrease in serum iron: dosed for 3 h
Experimental: The efficacy of Fpn inhibitors was investigated using a mouse model of transfusion-independent β-thalassemia. Mice with heterozygous deletion of β1 and β2 globin genes (called Hbb th3/+ mice) develop transfusion-independent anemia, ineffective erythropoiesis, splenomegaly and secondary iron overload in spleen, liver and kidneys. […] Hbb th3/+ mice were dosed twice daily with either compound at 20 or 60 mg/kg or with methylcellulose (10 ml/kg, Sigma, Cat. 274429) as a vehicle. Between both doses mice had access to drinking water supplemented with 1 mM ^58Fe(II)-sulfate (Vifor Pharma, Batch No. ROR 3096) and 10 mM ascorbic acid (Sigma, Cat. 795437) for 6 h. […] Water without ^58Fe(II)-Sulfate and ascorbic acid was provided during the remaining 18 h. Dosing of Fpn inhibitors or vehicle followed by exposure to iron-containing water was repeated for 20 to 46 days in individual experiments.
Additional hematologic parameters were measured in terminal blood using automated blood cell analyzer.
The inefficient erythropoiesis of Hbb th3/+ mice causes excessive proliferation of erythroid precursors in spleen, leading to splenomegaly.
Erythroferrone is produced by erythrocyte precursors proliferating massively in spleens of Hbb th3/+ mice as a consequence of extramedullar erythropoiesis.
Increased iron demand due to inefficient erythropoiesis and chronically low hepcidin levels in patients with thalassemia causes organ iron loading and associated morbidities, such as hepatocellular carcinoma and heart failure (Rivella S. Haematologica, 2015). Hbb th3/+ mice absorb excessive amounts of iron as a consequence of inadequately low hepcidin levels relative to the high iron content in liver, spleen and kidney and increased ferroportin expression in duodenum (Gardenghi S., Blood, 2007).
Additionally, reactive oxygen species (ROS) were detected in bone marrow cells using a fluorescent indicator, CM-H2DCFDA (Thermo Fisher Scientific, Cat. C6827).
Table 10. Efficacy of Ferroportin inhibitors in a mouse model of thalassemia intermedia (Hbb th3/+ mice). […] Data are expressed as difference to the vehicle control group for hemoglobin and as % change to the vehicle control group for all other parameter shown

[1] = male b2m−/− mice, Dose 60 mg/kg oral, blood collected 3 (##) hours after dosing
[2] = 20 mg/kg twice daily for 20-46 days
[3] = 60 mg/kg twice daily for 20-46 days

O=C(NCc1ncccc1F)c1csc(CCNCc2nc3ccccc3[nH]2)n1 [Example Compound No. 40, 2-{2-[(1H-1,3-benzodiazol-2-ylmethyl)amino]ethyl}-N-[(3-fluoropyridin-2-yl)methyl]-1,3-thiazole-4-carboxamide]
effect on elevated serum iron (b2m−/− mice): corrected the elevated serum iron to the levels observed in WT controls

O=C(NCc1ncccc1F)c1cnc(CCNCc2nc3ccccc3[nH]2)o1 [Example 4]
pIC50 (ferroportin (Fpn)): 6.81

O=C(NCc1ncccc1F)c1coc(C2CN(CCc3nc4ccccc4[nH]3)C2)n1 [Example 208]
Serum Iron Reduction (%) (b2m−/− mice; female b2m−/− mice, Dose 20 mg/kg oral, blood collected 3 (##) hours after dosing): 9%
Serum Iron Reduction (%) (b2m−/− mice; male b2m−/− mice, Dose 20 mg/kg oral, blood collected 3 (##) hours after dosing): 44%
Serum Iron Reduction (%) (b2m−/− mice; [1]): 67** %

O=C(NCc1ccccn1)c1noc(CCNCCc2nc3ccccc3[nH]2)n1 [Example 278]
pIC50 (ferroportin (Fpn)): 6.32

O=C(NCc1ncccc1F)c1cnc(C2CN(CCc3nc4c(F)cccc4[nH]3)C2)o1 [Example 3]
pIC50 (ferroportin (Fpn)): 6.77

O=C(NCc1ncccc1F)c1csc(CCNCCc2nc3ccccc3[nH]2)n1 [Example 94]
Serum Iron Reduction (%) (b2m−/− mice; female b2m−/− mice, Dose 60 mg/kg oral, blood collected 3 (##) hours after dosing): 47%
Serum Iron Reduction (%) (b2m−/− mice; [1]): 67%

O=C(NCc1ncccc1F)c1csc(CCN2Cc3nc4ccccc4n3CC2=O)n1 [Example 275]
pIC50 (ferroportin (Fpn)): 4.58

O=C(NCc1ncccc1F)c1cnc(C2CN(CCc3nc4cc(F)ccc4[nH]3)C2)o1 [Example 5]
pIC50 (ferroportin (Fpn)): 7.20

O=C(NCc1ncccc1F)c1cnc(CCNCCc2nc3ccccc3[nH]2)s1 [Example 8]
pIC50 (ferroportin (Fpn)): 6.62

O=C(NCc1ncccc1F)c1csc(CCNCCc2nc3ccccc3[nH]2)n1 [Example Compound No. 94, 2-(2-{[2-(1H-1,3-benzodiazol-2-yl)ethyl]amino}ethyl)-N-[(3-fluoropyridin-2-yl)methyl]-1,3-thiazole-4-carboxamide]
effect on elevated serum iron (b2m−/− mice): corrected the elevated serum iron to the levels observed in WT controls

Cc1nc(CCNCCc2nc3ccccc3[nH]2)sc1C(=O)NCc1ncccc1F [Example 7]
pIC50 (ferroportin (Fpn)): 6.40

O=C(NCc1ncccc1F)c1noc(CCNCCc2nc3ccccc3[nH]2)n1 [Example 279]
pIC50 (ferroportin (Fpn)): 5.70

O=C(NCc1ncccc1F)c1coc(CCNCCc2nc3ccccc3[nH]2)n1 [Example 127]
Decrease in 58Fe spleen iron content (Hbb th3/+ mice; [2]): 43%
Decrease in RDW (Hbb th3/+ mice; [2]): 19%
Decrease in serum erythropoietin (Hbb th3/+ mice; [2]): 32%
Increase in hematocrit (Hbb th3/+ mice; [2]): 3%
Prevention of liver 58Fe loading (Hbb th3/+ mice; [2]): 39%
Decrease in serum iron (Hbb th3/+ mice; 20 mg/kg): 68%
Decrease in 58Fe spleen iron content (Hbb th3/+ mice; [3]): 68%
Decrease in RDW (Hbb th3/+ mice; [3]): 25%
Decrease in serum erythropoietin (Hbb th3/+ mice; [3]): 33%
Increase in hematocrit (Hbb th3/+ mice; [3]): 20%
Prevention of liver 58Fe loading (Hbb th3/+ mice; [3]): 59%
Decrease in serum iron (Hbb th3/+ mice; 60 mg/kg): 81%
Serum Iron Reduction (%) (b2m−/− mice; female b2m−/− mice, Dose 20 mg/kg oral, sampling time not marked): 47*** %
Serum Iron Reduction (%) (b2m−/− mice; female b2m−/− mice, Dose 60 mg/kg oral, sampling time not marked): 74*** %
Serum Iron Reduction (%) (b2m−/− mice; male b2m−/− mice, Dose 60 mg/kg oral, sampling time not marked): 83** %

O=C(NCc1ncccc1F)c1cnc(C2CN(Cc3nc4ccccc4[nH]3)C2)o1 [Example 280]
pIC50 (ferroportin (Fpn)): 4.30

O=C(NCc1ncccc1F)c1csc(CCN2CCn3c(nc4ccccc43)C2)n1 [Example 276]
pIC50 (ferroportin (Fpn)): 4.57
